# In US20130190275A1, “COMBINED THERAPIES OF ANTIPSYCHOTIC DRUGS AND TETRACYCLINES IN THE TREATMENT OF PSYCHIATRIC DISORDERS” (MOR RESEARCH APPLICATIONS LTD., priority 2006, published 2013):
# Assays:
# MK801 treated rats [1] = assay: Pre-Pulse Inhibition (PPI) paradigm, MK801 animal model; assay type: in vivo, rat
# Description: (§1) Acoustic Startle Response (ASR) and Pre-Pulse Inhibition (PPI): Both experimental paradigms were performed in a room that was adjacent to the laboratory facilities and the animal stall and that was not used for other experiments. The animals were tested in squad of two with startle chambers counterbalanced across the different experimental groups. Startle response and prepulse inhibition were measured using two ventilated startle chambers (SR-LAB system, San Diego Instruments, San Diego, Calif.). Each chamber consisted of a Plexiglas cylinder resting on a platform inside a sound-attenuated, ventilated chamber. A high-frequency loudspeaker inside the chamber produced both a continuous broadband background noise of 70 dB and the various acoustic stimuli. Movement inside the tube was detected by a piezoelectric accelerometer below the frame. The amplitude of the whole body startle to an acoustic pulse was defined as the average of 100 one-msec accelerometer readings collected from pulse onset. These signals were then digitized and stored by a computer. Sound levels within each test chamber were measured routinely using a sound level meter (Radio Shack) to ensure consistent presentation. The SR-LAB calibration unit was used routinely to ensure consistent stabilimeter sensitivity between test chambers and over time (Swerdlow and Geyer, 1998, Schizophrenia Bulletin, 24(2), 285-301).
# (§2) Fifteen minutes before the behavioral procedures conducted at the fourth day, the subject was injected i.p. with an 0.1 mg/kg dose of MK801 or saline, for a total volume of 1 ml per kg of body weight. Next, the subjects passed the three behavioral procedures, described in the following paragraphs.
# (§3) ASR and PPI were measured using two startle chambers, with each chamber consisting of a Plexiglas cylinder resting on a platform inside a sound-attenuated, ventilated chamber (see also materials section). The animals were tested in pairs with startle chambers counterbalanced across the different experimental groups.
# PPI of the startle response was used as a measure of sensorimotor gating, with the startle chambers used to assess the ability of prepulse stimuli to block the startle response. […]
# Pre-Pulse Inhibition (PPI): Startle magnitude is expressed in all the procedures as arbitrary units. Percent PPI (% PPI) was calculated as the mean startle magnitude to stimulus-alone minus the mean startle magnitude to prepulse-stimulus trials, all divided by the mean stimulus-alone trials, and multiplied by 100. The overall mean % PPI was calculated for the four prepulse intensities (72, […], 80, 84 dB). Results were analyzed by two-way ANOVA with a between-subject measure of ‘group’ (difference the treatment groups) and ‘prepulse intensity’ (72, 76, 80, 84 dB).
# [2] = system: patients who experience first psychotic episode; assay: CANTAB Spatial Working Memory (SWM), adjuvant study; assay type: in vivo, human; conditions: atypical antipsychotic drug+minocycline 200 mg/day vs +placebo
# Description: The study was carried out in patients who experience first psychotic episode, and has followed the patient for a total duration of 6 months. As the study examines Minocycline as an adjuvant drug, the sample includes patients receiving one of the following atypical anti-psychotic drugs: Risperdal, Zyprexa, Geodon, Seroquel, and Leponex. […] In addition, the subjects were assessed by a battery of computerized neuropsychological tests (CANTAB—Cambridge Neuropsychological Test Automated Battery), measuring attention, memory, and planning. Executive function was tested by two tasks of the CANTAB: planning was tested by a computerized modification of the Tower of London, and working memory by a spatial working memory task. Minocycline was given as an add-on therapy. […] Clinical status was evaluated by the aforementioned scales at the onset of the study, every week for the first 6 weeks, and then once a month for the rest of the study period. Cognitive capabilities were assessed by the neuropsychological battery of tests according to the following schedule: upon initiation of the study (referred to as visit 1 in FIGS. 5-8), 3 months (referred to as visit 2 in FIGS. 5-8), and 6 months (referred to as visit 3 in FIGS. 5-8) after the start of the study. […]
# MK801 treated rats [3] = assay: Habituation of the Acoustic Startle Response (ASR), MK801 animal model; assay type: in vivo, rat
# Description: as §1, §2, §3
# The ASR test measured the ability of the animal to habituate to repetitive loud pulses of noise. […] Movement inside the tube was detected by a piezoelectric accelerometer below the frame. The amplitude of the whole body startle to an acoustic pulse was defined as the average of 100 one-msec accelerometer readings collected from pulse onset. […]
# Acoustic Startle Response (ASR): The decrease in ASR in the groups was calculated as the percent of amplitude decrease between the mean of the first five amplitude values and the mean of the last 25 amplitude values.
# Percent habituation=100×[(average startle amplitude in Block 1)−(average startle amplitude in Block 5)/(average startle amplitude in Block 1)]. Results were analyzed by two-way ANOVA a between-subject measure of ‘group’ (treatment group).
# [4] = drug+MK801 0.1 mg/kg i.p., minocycline 35 mg/kg x 3 days pretreatment, haloperidol 0.4 mg/kg i.p.
compound,measurement,setting,value
CN(C)c1ccc(O)c2c1C[C@H]1C[C@H]3[C@H](N(C)C)C(O)=C(C(N)=O)C(=O)[C@@]3(O)C(O)=C1C2=O [minocycline],percent of PPI (% PPI),MK801 treated rats [1]; [4],able to reverse the deficits caused by the MK801 treatment
same,percent of PPI (% PPI),MK801 treated rats [1]; minocycline alone (no MK801) vs saline,no statistically significant differences
same,SWM between errors,[2]; p<0.0001,improved significantly more than the placebo group
same,SWM strategy score,[2]; p<0.05,improved significantly more than the placebo group
same,percent habituation of the startle response (% habituation),MK801 treated rats [3]; drug alone (no MK801) vs saline treated animals,no effect on habituation of ASR
same,percent habituation of the startle response (% habituation),MK801 treated rats [3]; [4],able to prevent the deficits induced by MK801
